In the NIST ThermoML archive (doi:10.1021/acs.jced.9b00442):
± gives the expanded uncertainty stated by the source.

Experiments:
[1] = 100 kPa, Liquid; for mass density: Vibrating tube method; for viscosity: Concentric cylinders viscometry
[2] = refractive index (Na D-line) (dimensionless); conditions: 100 kPa, Liquid, Standard Abbe refractometry

CC[N+](C)(C)CCOC.O=S(=O)([N-]S(=O)(=O)C(F)(F)F)C(F)(F)F gave a mass density ([1]; 328.15 K) of 1403.1 ± 1.1 kg/m3, a mass density ([1]; 329.15 K) of 1402.2 ± 1.1 kg/m3 and a mass density ([1]; 330.15 K) of 1401.3 ± 1.1 kg/m3. It also gave a mass density ([1]; 331.15 K) of 1400.4 ± 1.1 kg/m3, a mass density ([1]; 332.15 K) of 1399.4 ± 1.1 kg/m3 and a viscosity ([1]; 333.15 K) of 18 ± 0.7 mPa·s. The mass density ([1]; 333.15 K) was 1398.5 ± 1.1 kg/m3, the mass density ([1]; 334.15 K) was 1397.6 ± 1.1 kg/m3 and the mass density ([1]; 335.16 K) was 1396.7 ± 1.1 kg/m3. For the same compound, the mass density ([1]; 336.15 K) was 1395.8 ± 1.1 kg/m3, the mass density ([1]; 337.15 K) was 1394.9 ± 1.1 kg/m3 and the viscosity ([1]; 338.15 K) was 15.6 ± 0.6 mPa·s. It also gave a mass density ([1]; 338.15 K) of 1394 ± 1.1 kg/m3, a mass density ([1]; 339.15 K) of 1393.1 ± 1.1 kg/m3 and a mass density ([1]; 340.15 K) of 1392.2 ± 1.1 kg/m3. The mass density ([1]; 341.15 K) was 1391.3 ± 1.1 kg/m3, the mass density ([1]; 342.15 K) was 1390.4 ± 1.1 kg/m3 and the viscosity ([1]; 343.15 K) was 13.7 ± 0.6 mPa·s. For the same compound, the mass density ([1]; 343.15 K) was 1389.5 ± 1.1 kg/m3, the mass density ([1]; 344.15 K) was 1388.6 ± 1.1 kg/m3 and the mass density ([1]; 345.15 K) was 1387.7 ± 1.1 kg/m3. For the same compound, the mass density ([1]; 346.15 K) was 1386.7 ± 1.1 kg/m3, the mass density ([1]; 347.15 K) was 1385.8 ± 1.1 kg/m3 and the viscosity ([1]; 348.15 K) was 12.2 ± 0.5 mPa·s. For the same compound, the mass density ([1]; 348.15 K) was 1384.9 ± 1.1 kg/m3, the mass density ([1]; 349.15 K) was 1384 ± 1.1 kg/m3 and the mass density ([1]; 350.15 K) was 1383.1 ± 1.1 kg/m3. It also gave a mass density ([1]; 351.15 K) of 1382.2 ± 1.1 kg/m3, a mass density ([1]; 352.15 K) of 1381.3 ± 1.1 kg/m3 and a viscosity ([1]; 353.15 K) of 11 ± 0.4 mPa·s. For the same compound, the mass density ([1]; 353.15 K) was 1380.4 ± 1.1 kg/m3, the mass density ([1]; 354.15 K) was 1379.5 ± 1.1 kg/m3 and the mass density ([1]; 355.15 K) was 1378.6 ± 1.1 kg/m3. It also gave a mass density ([1]; 356.15 K) of 1377.7 ± 1.1 kg/m3, a mass density ([1]; 357.15 K) of 1376.9 ± 1.1 kg/m3 and a viscosity ([1]; 358.15 K) of 9.7 ± 0.4 mPa·s. The mass density ([1]; 358.15 K) was 1376 ± 1.1 kg/m3, the mass density ([1]; 359.15 K) was 1375.1 ± 1.1 kg/m3 and the mass density ([1]; 360.15 K) was 1374.2 ± 1.1 kg/m3. For the same compound, the mass density ([1]; 361.15 K) was 1373.3 ± 1.1 kg/m3, the mass density ([1]; 362.16 K) was 1372.4 ± 1.1 kg/m3 and the viscosity ([1]; 363.15 K) was 8.8 ± 0.4 mPa·s. For the same compound, the mass density ([1]; 363.15 K) was 1371.5 ± 1.1 kg/m3, the refractive index ([2]; 283.15 K) was 1.4164 ± 0.0017 and the refractive index ([2]; 288.15 K) was 1.415 ± 0.0017. The refractive index ([2]; 293.15 K) was 1.4136 ± 0.0017, the refractive index ([2]; 298.15 K) was 1.4121 ± 0.0017 and the refractive index ([2]; 303.15 K) was 1.4107 ± 0.0017. It also gave a refractive index ([2]; 308.15 K) of 1.4092 ± 0.0017, a refractive index ([2]; 313.15 K) of 1.4078 ± 0.0017 and a refractive index ([2]; 318.15 K) of 1.4065 ± 0.0017. The refractive index ([2]; 323.15 K) was 1.4051 ± 0.0017, the refractive index ([2]; 328.15 K) was 1.4037 ± 0.0017 and the refractive index ([2]; 333.15 K) was 1.4024 ± 0.0017. For the same compound, the refractive index ([2]; 338.15 K) was 1.4011 ± 0.0017, the refractive index ([2]; 343.15 K) was 1.3998 ± 0.0017 and the refractive index ([2]; 348.15 K) was 1.3985 ± 0.0017. It also gave a refractive index ([2]; 353.15 K) of 1.3972 ± 0.0017 and a refractive index ([2]; 358.15 K) of 1.3959 ± 0.0017.
